Data reported in patent publication US4789736A, “Complexes of technetium-99m with propylene amine oximes” (Amersham International plc, priority 1985, dated 1988).

Test: Animal biodistribution of Tc-99m complexes of ligands, no separation of stereoisomers (Example 22)
Type: in vivo, rats
Conditions: i.v. rats
Experimental: The ratio of diastereoisomers in the Tc-99m complexes used in this experiment is not known.
The results at 2 minutes and 1 hour p.i. are the mean of 3 animals.
The results at 2 hours p.i. are the mean of 2 animals.

| % id/organ, Blood (2 min pi, mean of 3 animals) [% id/organ] | % id/organ, Brain (2 min pi, mean of 3 animals) [% id/organ] | % id/organ, Liver (2 min pi, mean of 3 animals) [% id/organ] | % id/organ, Blood (1 hr pi, mean of 3 animals) [% id/organ] | % id/organ, Brain (1 hr pi, mean of 3 animals) [% id/organ] | % id/organ, Liver (1 hr pi, mean of 3 animals) [% id/organ] | % id/organ, Heart (2 min pi, mean of 3 animals) [% id/organ] | % id/organ, Blood (2 hr pi, mean of 2 animals) [% id/organ] | % id/organ, Brain (2 hr pi, mean of 2 animals) [% id/organ] | % id/organ, Heart (2 hr pi, mean of 2 animals) [% id/organ] | % id/organ, Liver (2 hr pi, mean of 2 animals) [% id/organ] | % id/organ, Heart (1 hr pi, mean of 3 animals) [% id/organ] | SMILES |
| --- | --- | --- | --- | --- | --- | --- | --- | --- | --- | --- | --- | --- |
| 10.5 | 0.8 | 18.0 | 2.8 | 0.6 | 12.1 | – | – | – | – | – | – | CCCC(=NO)C(C)NCCCNC(C)C(CCC)=NO (stereo not shown) [Compound 5, 6,10-Diaza-5,11-dimethylpentadecane-4,12-dione bis oxime] |
| 5.8 | 1.2 | 19.6 | – | – | – | 0.4 | 2.6 | 0.4 | 0.2 | 13.5 | – | CCC(=NO)C(C)NCC(C)(C)CNC(C)C(CC)=NO (stereo not shown) [Compound 6, 5,9-Diaza-4,7,7,10-tetramethyltridecane-3,11-dione bis oxime] |
| 7.4 | 1.0 | 20.6 | 3.3 | 0.5 | 36.5 | – | – | – | – | – | – | CCC(CC)(CNC(C)C(C)=NO)CNC(C)C(C)=NO (stereo not shown) [Compound 7, 4,8-Diaza-6,6-diethyl-3,9-dimethylundecane-2,10-dione bis oxime] |
| 14.0 | 0.4 | 32.9 | – | – | – | 0.5 | 2.7 | 0.6 | 0.3 | 16.9 | – | CC(=NO)C(NCCCNC(C(C)=NO)c1ccccc1)c1ccccc1 (stereo not shown) [Compound 10, 4,8-Diaza-3,9-diphenylundecane-2,10-dione bis oxime] |
| 8.6 | 1.0 | 23.9 | 6.0 | 0.9 | 19.7 | 0.5 | – | – | – | – | 0.3 | CC(=NO)C(C)NC(C)CC(C)NC(C)C(C)=NO (stereo not shown) [Compound 12, 4,8-Diaza-3,5,7,9-tetramethylundecane-2,10 bis oxime] |
| 15.2 | 0.5 | 15.9 | 7.2 | 0.2 | 12.5 | 0.6 | – | – | – | – | 0.2 | CC(C)C(=NO)C(C)NCCCNC(C)C(=NO)C(C)C (stereo not shown) [Compound 13, 5,9-Diaza-2,4,10,12-tetramethyltridecane-3,11-dione bis oxime] |

| SMILES | % id/organ, Blood (2 min pi, mean of 3 animals) [% id/organ] | % id/organ, Brain (2 min pi, mean of 3 animals) [% id/organ] | % id/organ, Liver (2 min pi, mean of 3 animals) [% id/organ] | % id/organ, Blood (1 hr pi, mean of 3 animals) [% id/organ] | % id/organ, Brain (1 hr pi, mean of 3 animals) [% id/organ] | % id/organ, Liver (1 hr pi, mean of 3 animals) [% id/organ] | % id/organ, Heart (2 min pi, mean of 3 animals) [% id/organ] | % id/organ, Blood (2 hr pi, mean of 2 animals) [% id/organ] | % id/organ, Brain (2 hr pi, mean of 2 animals) [% id/organ] | % id/organ, Heart (2 hr pi, mean of 2 animals) [% id/organ] | % id/organ, Liver (2 hr pi, mean of 2 animals) [% id/organ] | % id/organ, Heart (1 hr pi, mean of 3 animals) [% id/organ] |
| --- | --- | --- | --- | --- | --- | --- | --- | --- | --- | --- | --- | --- |
| CC(=NO)C(C)NCC(C)CNC(C)C(C)=NO (stereo not shown) [Compound 11, 4,8-Diaza-3,6,9-trimethylundecane-2,10-dione bis oxime] | 11.9 | 1.3 | 12.3 | 4.7 | 1.0 | 10.2 | 0.8 | – | – | – | – | 0.4 |
